14 compounds from patent publication US20250382279A1, “COMPOUNDS AND METHODS FOR YAP/TEAD MODULATION AND INDICATIONS THEREFOR” (OPNA BIO SA, priority 2023, published 2025) can be followed below.

By IC50 is commonly meant the concentration that gives 50% inhibition.

The test system of the assay is TEAD-dependent transcription. The assay is described as follows: Inhibitor activity against TEAD-dependent transcription in a cell-based reporter assay (MSTO-211H+12XGTIIC luciferase). To be noted: Homo sapiens; MSTO-211H+12XGTIIC cell line, 24 hours compound incubation, luminescence normalized to cell viability fluorescence; read-out: MSTO-211H GMean IC50 (uM) Cell Assay Reporter Cell Variant: TEAD. An excerpt:
Determine Inhibitor Activity Against TEAD-Dependent Transcription in a Cell-Based Reporter Assay
The human mesothelioma cell line MSTO-211H was stably transfected with a pGL4.21 plasmid containing a synthetic promoter with 12 copies of the GTIIC TEAD response element that drives the expression of a luciferase reporter gene^1 using Lipofectamine transfection reagent (Thermno Fisher). Transfected cells were selected using puromycin and single cell clones expressing this construct (referred to as MSTO-211H+12XGTIIC) were generated by limiting dilution. MSTO-211H cells was characterized by genetic alterations in key components of the Hippo pathway^2, resulting in up-regulation of YAP/TEAD-mediated transcription. […] To evaluate TEAD inhibitors, the MSTO-211H+12XGTIIC cell line was seeded in a 96-well plate in 50 μL of culture media at 1×10^4 cells per well and incubated at 37° C. overnight. Serial dilutions of compounds (in total volume of 50 μL of culture media) were added to the cells and incubated at 37° C. for 24 hours. Each plate included cells treated with DMSO as high controls and cells treated with 20 μM of the reference compound K-975 (a known TEAD inhibitor)^3 as low controls. Cell viability was assayed by the addition of 25 μL of CellTiter-Fluor reagent (Promega) followed by a 30-minute incubation at 37° C. and quantification of the fluorescence signal (Ex400/Em505). Subsequently, luciferase expression was assayed by the addition of 25 μL of ONE-Glo reagent (Promega) followed by a 10-minute incubation at room temperature and quantification of the luminescence signal. The luminescence signal was normalized to the fluorescence signal to correct for any loss in cell viability over the 24-hour compound incubation period. The percentage of inhibition of normalized luminescence signal, indicative of compound-mediated inhibition of TEAD-dependent transcription, at individual compound concentrations relative to high and low controls was calculated. The data were analyzed by using nonlinear regression to generate IC50 values for individual compounds.
Consider `CS(=O)(=O)C1CC(N2CCc3c(Oc4ccc(C(F)(F)F)cc4)cccc3C2=O)C1` (centres unmarked) [O-0006, 2-(3-(methylsulfonyl)cyclobutyl)-5-(4-(trifluoromethyl)phenoxy)-3,4-dihydroisoquinolin-1(2H)-one], for which the IC50 lay in the range of 0.001 to 10 µM.
As for `CS(=O)(=O)c1nccc(N2CCc3c(Oc4ccc(C(F)(F)F)cc4)cccc3C2=O)n1` [O-0007, 2-(2-(methylsulfonyl)pyrimidin-4-yl)-5-(4-(trifluoromethyl)phenoxy)-3,4-dihydroisoquinolin-1(2H)-one], the figure is 0.001 to 10 µM.
In the case of `CS(=O)(=O)N1CCC(N2CCc3c(Oc4ccc(C(F)(F)F)cc4)cccc3C2=O)C1` (centres unmarked) [O-0027, 2-(1-(methylsulfonyl)pyrrolidin-3-yl)-5-(4-(trifluoromethyl)phenoxy)-3,4-dihydroisoquinolin-1(2H)-one], the IC50 was 0.001 to 10 µM.
As for `Nc1cncc(N2CCc3ccc(Oc4ccc(C(F)(F)F)cc4)cc3C2=O)c1` [O-0110, 2-(5-aminopyridin-3-yl)-7-(4-(trifluoromethyl)phenoxy)-3,4-dihydroisoquinolin-1(2H)-one], the figure is 0.001 to 10 µM; as for `N#Cc1nc2ccc(N3CCc4c(Oc5ccc(C(F)(F)F)cc5)cccc4C3=O)cc2o1` [O-0017, 6-(1-oxo-5-(4-(trifluoromethyl)phenoxy)-3,4-dihydroisoquinolin-2(1H)-yl)benzo[d]oxazole-2-carbonitrile], 0.001 to 10 µM; as for `O=C1c2cc(Oc3ccc(C(F)(F)F)cc3)ccc2CCN1c1cccc(S(=O)(=O)C(F)(F)F)n1` [O-0032, 7-(4-(trifluoromethyl)phenoxy)-2-(6-((trifluoromethyl)sulfonyl)pyridin-2-yl)-3,4-dihydroisoquinolin-1(2H)-one], 0.001 to 10 µM.
With `C=CC(=O)Nc1cncc(N2CCc3ccc(Oc4ccc(C(F)(F)F)cc4)cc3C2=O)c1` [O-0108, N-(5-(1-oxo-7-(4-(trifluoromethyl)phenoxy)-3,4-dihydroisoquinolin-2(1H)-yl)pyridin-3-yl)acrylamide] the figure was 0.001 to 10 µM; with `O=C1c2cccc(Oc3ccc(C(F)(F)F)cc3)c2CCN1c1ccc(S(=O)(=O)C(F)(F)F)cc1` [O-0004, 5-(4-(trifluoromethyl)phenoxy)-2-(4-((trifluoromethyl)sulfonyl)phenyl)-3,4-dihydroisoquinolin-1(2H)-one], 0.001 to 10 µM.
As for `O=C1c2cccc(Oc3ccc(C(F)(F)F)cc3)c2CCN1C1CCN(S(=O)(=O)C(F)(F)F)CC1` [O-0020, 5-(4-(trifluoromethyl)phenoxy)-2-(1-((trifluoromethyl)sulfonyl)piperidin-4-yl)-3,4-dihydroisoquinolin-1(2H)-one], the figure is 0.001 to 10 µM; as for `CS(=O)(=O)N1CCC(N2CCc3c(Oc4ccc(C(F)(F)F)cc4)cccc3C2=O)CC1` [O-0018, 2-(1-(methylsulfonyl)piperidin-4-yl)-5-(4-(trifluoromethyl)phenoxy)-3,4-dihydroisoquinolin-1(2H)-one], 0.001 to 10 µM.
As to `CS(=O)(=O)c1ccc(N2CCc3c(Oc4ccc(C(F)(F)F)cc4)cccc3C2=O)cc1` [O-0002, 2-(4-(methylsulfonyl)phenyl)-5-(4-(trifluoromethyl)phenoxy)-3,4-dihydroisoquinolin-1(2H)-one], the IC50 was 0.001 to 10 µM.
For `CS(=O)(=O)c1cccc(N2CCc3c(Oc4ccc(C(F)(F)F)cc4)cccc3C2=O)c1` [O-0001, 2-(3-(methylsulfonyl)phenyl)-5-(4-(trifluoromethyl)phenoxy)-3,4-dihydroisoquinolin-1(2H)-one], the IC50 lay within 0.001 to 10 µM.
As for `O=C1c2cccc(Oc3ccc(C(F)(F)F)cc3)c2CCN1c1ccc2nc(C(F)(F)F)[nH]c2c1` [O-0016, 2-(2-(trifluoromethyl)-1H-benzo[d]imidazol-6-yl)-5-(4-(trifluoromethyl)phenoxy)-3,4-dihydroisoquinolin-1(2H)-one], the figure is 0.001 to 10 µM; as for `Nc1cccc(N2CCc3ccc(Oc4ccc(C(F)(F)F)cc4)cc3C2=O)n1` [O-0111, 2-(6-aminopyridin-2-yl)-7-(4-(trifluoromethyl)phenoxy)-3,4-dihydroisoquinolin-1(2H)-one], 0.001 to 10 µM.
